Data taken from patent US11813277B2, “Methods and agents for modulating inflammation” (The Regents of the University of California, priority 2018, dated 2023).

Key:
CPT-1 = target: T1, CPT-1 (Homo sapiens, UniProt P50416); assay: Palmitoyl CoA-driven respiration in permeabilized HepG2 cells; format: cell-based; design: endogenous in cells; host or cells: HepG2 (A5)
T1 sequence (P50416 1-773): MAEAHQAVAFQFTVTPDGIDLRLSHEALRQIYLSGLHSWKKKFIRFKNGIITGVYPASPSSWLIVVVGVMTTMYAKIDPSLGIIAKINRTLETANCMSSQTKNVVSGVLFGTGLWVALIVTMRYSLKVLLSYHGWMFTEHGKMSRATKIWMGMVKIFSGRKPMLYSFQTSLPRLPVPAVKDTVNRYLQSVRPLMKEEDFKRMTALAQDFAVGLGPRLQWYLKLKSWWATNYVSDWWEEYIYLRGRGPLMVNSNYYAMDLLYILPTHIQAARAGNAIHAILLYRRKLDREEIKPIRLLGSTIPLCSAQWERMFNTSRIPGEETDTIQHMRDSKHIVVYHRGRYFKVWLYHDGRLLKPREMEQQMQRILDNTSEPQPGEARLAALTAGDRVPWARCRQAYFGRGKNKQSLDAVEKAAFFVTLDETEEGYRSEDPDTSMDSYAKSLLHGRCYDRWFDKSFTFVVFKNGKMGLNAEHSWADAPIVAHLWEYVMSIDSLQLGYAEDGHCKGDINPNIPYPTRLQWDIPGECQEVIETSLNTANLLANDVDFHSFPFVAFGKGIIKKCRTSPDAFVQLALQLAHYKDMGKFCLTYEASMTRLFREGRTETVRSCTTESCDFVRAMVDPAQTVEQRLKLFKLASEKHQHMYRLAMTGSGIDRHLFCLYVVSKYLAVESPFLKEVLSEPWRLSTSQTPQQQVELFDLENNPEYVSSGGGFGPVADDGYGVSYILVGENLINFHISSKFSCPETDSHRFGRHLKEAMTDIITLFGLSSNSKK

Arginase = Arginase activity in BMDMs; format: cell-based, mouse; conditions: 200 μM etomoxir, IL-4, 24 hr
Description: On Day 6 of differentiation, BMDMs were seeded at 1×10^6 cells/well in 6-well plates. 24 hr later, BMDMs were mock-treated or co-treated with 20 ng/mL IL-4±200 μM etomoxir in DMEM supplemented with 5% FBS, 2 mM L-glutamine, 100 units/mL, 100 μg/mL penicillin/streptomycin, 500 μM of sodium pyruvate and 5% v/v conditioned media containing macrophage colony stimulating factor (M-CSF) for 24 hr. Prior to sample collections, cells were washed with 600 μL of ice-cold PBS twice and scraped into 1.5 mL centrifuge tubes. Cell lysate was prepared according to Arginase Activity Assay Kit (Sigma MAK112) instructions and the 20 μL of lysate was used to measure arginase activity. Arginase activity was adjusted to total cell number.

CPT-1a and CPT-1b = conditions: upon enzymatic conversion to etomoxiryl CoA; cited from earlier work
[1] = tested on: A549, HCT116, cortical neurons, cortical astrocytes, BMDM, NRVM; assay: Respiration in intact cells offered glucose, glutamine, pyruvate (six cell types); format: cell-based
Description: All respirometry studies were conducted in either a Seahorse XF96 or XFe96 Analyzer. All experiments were conducted at 37° C., and at pH 7.4 (intact cells) or 7.2 (permeabilized cells and isolated mitochondria). Calculation of respiratory parameters was made according to standard protocols (Divakaruni, A. S., Paradyse, A., Ferrick, D. A., Murphy, A. N., and Jastroch, M. (2014a) Analysis and interpretation of microplate-based oxygen consumption and pH data. Meth. Enzym 547, 509-54), and all rates were corrected for non-mitochondrial respiration/background signal by subtracting the oxygen consumption rate insensitive to rotenone plus antimycin A.
When diagnosing an off-target effect of etomoxir (FIG. 5A, FIG. 5B, FIG. 5C), all cells apart from primary neurons were offered 8 mM glucose, 2 mM glutamine, and 2 mM pyruvate in unbuffered DMEM supplemented with 5 mM HEPES. […] Respiration in all intact cells was measured in the basal state as well as in response to 2 μM oligomycin, FCCP (either 400 nM, 800 nM or 1.2 μM as appropriate and previously optimized), and 0.2 μM rotenone with 1 μM antimycin A. Etomoxir (at concentrations indicated in the text), UK5099 (3 μM), or BPTES (3 μM) were added to the assay medium 30 min prior to measurements.

[2] = tested on: isolated rat liver mitochondria; assay: ADP- vs FCCP-stimulated respiration in isolated liver mitochondria; format: biochemical; conditions: high etomoxir (100 μM), pyruvate/malate
Description: Mouse liver mitochondria were isolated according to standard techniques (Rogers, G. W., Brand, M. D., Petrosyan, S., Ashok, D., Elorza, A. A., Ferrick, D. A., and Murphy, A. N. (2011) High throughput microplate respiratory measurements using minimal quantities of isolated mitochondria. PLoS One. 6, e21746). The liver from a male mouse was minced and rinsed several times in MSHE [70 mM sucrose, 210 mM mannitol, 5 mM HEPES (pH 7.2), and 1 mM EGTA with 0.5% (w/v) fatty acid-free BSA] to remove blood. Tissue was disrupted using a drill-driven Teflon-on-glass Dounce homogenizer (between 2-4 strokes). The homogenate was centrifuged at 800 g for 10 min and the supernatant was filtered through cheesecloth and centrifuged at 8000 g for 10 min. […]
Phosphorylating respiration was measured in isolated liver mitochondria (1.5 μg/well) as previously described (Rogers, G. W., Brand, M. D., Petrosyan, S., Ashok, D., Elorza, A. A., Ferrick, D. A., and Murphy, A. N. (2011) High throughput microplate respiratory measurements using minimal quantities of isolated mitochondria. PLoS One. 6, e21746), and offered 10 mM pyruvate, 1 mM malate, and 4 mM ADP. Uncoupler stimulated respiration was measured after addition of oligomycin (3 ng/mg mitochondrial protein) and FCCP (4 μM). […]

With `CCOC(=O)[C@@]1(CCCCCCOc2ccc(Cl)cc2)CO1` [etomoxir] the “EC50, FCCP-stimulated palmitoyl CoA-driven respiration” value (CPT-1) was “nanomolar”, the “concentration of saturable effect” value (CPT-1) was “less than 3 μM” and the Arginase activity (Arginase) was “unaffected”. For the same compound, the IC50 (CPT-1a and CPT-1b) was 0.01 to 0.7 µM, the maximal respiratory rate ([1]; 3 μM etomoxir, no fatty acids or carnitine) was “did not inhibit respiration” and the “ATP-linked vs uncoupler-stimulated respiration” value ([1]; increasing, high concentrations of etomoxir) was “disproportionately inhibited ATP-linked respiration relative to uncoupler-stimulated respiration”. The “respiration driven by ADP versus FCCP” value [2] was “greater inhibitory effect on respiration driven by ADP versus FCCP”.
